Measurements: ChEMBL document CHEMBL5365441, “Novel Foscan®-derived ring-fused chlorins for photodynamic therapy of cancer” (Bioorg Med Chem, 2023)

Key:
[1] = Drug internalization in mouse NIH/3T3 cells at 2.5 uM by flow cytometry analysis; assay type: ADME, cell-based; conditions: nih3t3, 2.5 µM, TDE = time-dependent effect, time 3-24 hrs
[2] = Cytotoxicity against mouse NIH/3T3 cells assessed as reduction in cell viability incubated for 24 hrs under dark condition by resazurin reduction assay; assay type: toxicity, cell-based, NIH3T3
[3] = test system: MDA-MB-231; assay: Cytotoxicity against human MDA-MB-231 cells assessed as reduction in cell viability incubated for 24 hrs under dark condition by resazurin reduction assay; assay type: functional, cell-based; conditions: MDA-MB-231, 24 h
[4] = Drug distribution in golgi body of human U2OS cells expressing GALT1-GFP assessed as increase in fluorescence intensity at 5 uM incubated for 24 hrs by Hoechst staining based confocal microscopic analysis; assay type: ADME, subcellular
[5] = test system: MDA-MB-231; assay: Photocytotoxicity against human MDA-MB-231 cells assessed as reduction in cell viability preincubated for 24 hrs followed by washout and 1 J/cm2 light irradiation for 24 hrs by resazurin reduction assay; assay type: functional, cell-based; conditions: MDA-MB-231, light or radiation study
[6] = Induction of singlet oxygen production in EtOH assessed as singlet oxygen quantum yield by SOSG reagent based assay; assay type: functional
[7] = Drug distribution in endoplasmic reticulum of human U2OS cells expressing CALR-GFP assessed as increase in fluorescence intensity at 5 uM incubated for 24 hrs by Hoechst staining based confocal microscopic analysis; assay type: ADME, subcellular
[8] = Photocytotoxicity against mouse NIH/3T3 cells assessed as reduction in cell viability preincubated for 24 hrs followed by washout and 1 J/cm2 light irradiation for 24 hrs by resazurin reduction assay; assay type: toxicity, cell-based, NIH3T3
[9] = Drug internalization in human MDA-MB-231 cells at 2.5 uM by flow cytometry analysis; assay type: ADME, cell-based; conditions: mda-mb-231, 2.5 µM, TDE = time-dependent effect, time 3-24 hrs
[10] = Photostability of compound in DMSO assessed as photodecomposition quantum yield; assay type: physicochemical
[11] = Emission property of compound in DMSO assessed as fluorescence quantum yield; assay type: physicochemical
[12] = test system: MDA-MB-231; assay: Phototherapeutic index, ratio of IC50 for cytotoxicity against human MDA-MB-231 cells under dark condition to IC50 for photocytotoxicity against human MDA-MB-231 cells in presence of 1 J/cm2 light irradiation; assay type: functional

Row | SMILES | Drug uptake [1] | Drug uptake [4] | Drug uptake [7] | Drug uptake [9] | Activity [10] | Activity [11] | IC50 at 24 h [2] [nM] | IC50 [3] [nM] | IC50 [5] [nM] | Activity [6] | IC50 [8] [nM] | Ratio IC50 [12]
1 | Oc1cccc(-c2c3nc(c(-c4cccc(O)c4)c4ccc([nH]4)c(-c4cccc(O)c4)c4nc(c(-c5cccc(O)c5)c5ccc2[nH]5)C=C4)C=C3)c1 | Tde | – | – | Tde | – | – | 9160 | 3310 | 25.7 | – | 12.5 | –
2 | [N-]=[N+]=NCc1cc2n(n1)CC1c3nc(c(-c4cccc(O)c4)c4ccc([nH]4)c(-c4cccc(O)c4)c4nc(c(-c5cccc(O)c5)c5ccc([nH]5)c3-c3cccc(O)c3)C=C4)C1C2 (centres undefined) | Tde | – | – | Tde | 60.8 10^-6No_unit | 0.12 | 10600 | 15800 | 106 | 0.47 | 93.1 | 149.7
3 | COC(=O)c1cc2n(n1)CC1c3nc(c(-c4cccc(OC(C)=O)c4)c4ccc([nH]4)c(-c4cccc(OC(C)=O)c4)c4nc(c(-c5cccc(OC(C)=O)c5)c5ccc([nH]5)c3-c3cccc(OC(C)=O)c3)C=C4)C1C2 (centres undefined) | Tde | Not Active | Not Active | Tde | 66.9 10^-6No_unit | 0.11 | > 10000 | > 10000 | 1.3 | 0.45 | 617 | –

Second part, led by results:

Row | Drug uptake [1] | Drug uptake [4] | Drug uptake [7] | Drug uptake [9] | Activity [10] | Activity [11] | SMILES | IC50 at 24 h [2] [nM] | IC50 [3] [nM] | IC50 [5] [nM] | Activity [6] | IC50 [8] [nM] | Ratio IC50 [12]
4 | Tde | Active | Active | Tde | 52.7 10^-6No_unit | 0.1 | OCc1cc2n(n1)CC1c3nc(c(-c4cccc(O)c4)c4ccc([nH]4)c(-c4cccc(O)c4)c4nc(c(-c5cccc(O)c5)c5ccc([nH]5)c3-c3cccc(O)c3)C=C4)C1C2 (centres undefined) | > 10000 | 7740 | 86.3 | 0.5 | 107 | 93.37
5 | Tde | – | – | Tde | 54.8 10^-6No_unit | 0.1 | OCc1nn2c(c1CO)CC1c3nc(c(-c4cccc(O)c4)c4ccc([nH]4)c(-c4cccc(O)c4)c4nc(c(-c5cccc(O)c5)c5ccc([nH]5)c3-c3cccc(O)c3)C=C4)C1C2 (centres undefined) | > 10000 | 11400 | 309 | 0.49 | 343 | 37
6 | Tde | – | – | Tde | 60.8 10^-6No_unit | 0.11 | COC(=O)c1cc2n(n1)CC1c3nc(c(-c4cccc(O)c4)c4ccc([nH]4)c(-c4cccc(O)c4)c4nc(c(-c5cccc(O)c5)c5ccc([nH]5)c3-c3cccc(O)c3)C=C4)C1C2 (centres undefined) | > 10000 | 7740 | 138 | 0.53 | 109 | 56.27
